Legend:
Assay type in all cases: in vivo, rat
[1] = system: letrozole-treated rats; assay: pQCT monitoring of bone loss in the proximal tibia metaphysis of rats given daily oral letrozole
Protocol: (§1) It was investigated whether bone loss induced in rats by either ovariectomy (OVX) or the aromatase inhibitor letrozole (Let) could be prevented by the bisphosphonate zoledronic acid (Zol).
(§2) Material and Methods: Adult, skeletally mature, 8-month-old female Wistar rats were assigned to the following treatment groups […]: Sham (vehicle), OVX, Let-treated, OVX +Zol and Let+Zol. Zol was injected into the tail vein as a single dose of 0.8, 4 or 20 μg/kg 3 days before OVX or before initiating daily oral dosing of Let (1 mg/kg) for 24 weeks. Changes in total and cancellous bone mineral density (BMD) and cortical thickness in the proximal tibia metaphysis were monitored non-invasively by peripheral quantitative computed tomography (pQCT) at 0, 2, 4, 8, 12, 16, 20 and 24 weeks.

[2] = system: letrozole-treated rats; assay: Compression test of the 5th lumbar vertebral body after letrozole administration
Protocol: as §2
(§3) Both tibiae, femora and lumbar vertebrae L1-L6 were harvested at necropsy in order to carry out biomechanical testing.
(§4) Mechanical properties of the 5th lumbar vertebral body were evaluated in compression after removal of the epiphyseal ends, posterior pedicle arch and spinous process on a 4 mm segment with piano-parallel ends.

[3] = system: OVX rats; assay: Compression test of the 5th lumbar vertebral body after OVX; conditions: single iv 0.8, 4 or 20 μg/kg
Protocol: as §2, §3, §4

[4] = system: OVX rats; assay: pQCT monitoring of bone loss in the proximal tibia metaphysis of ovariectomized rats
Protocol: as §1, §2

[5] = daily oral letrozole 1 mg/kg, at 24 weeks, P<0.01 vs sham
[6] = letrozole-treated rats, 4 μg/kg iv
[7] = letrozole-treated rats, highest dose (20 μg/kg iv), P<0.01 vs letrozole, NS vs sham

N#Cc1ccc(C(c2ccc(C#N)cc2)n2cncn2)cc1 [letrozole, 4-[α-(4-cyanophenyl)-1-(1,2,4-triazolyl)methyl]-benzonitrile]
change in cancellous bone mineral density (cancellous bone loss) [1, 5]: −26%
change in mean cortical thickness [1, 5]: −21%
change in total BMD [1, 5]: −13%
ultimate bone strength of 5th lumbar vertebral body ([2]; daily oral letrozole 1 mg/kg for 24 weeks, NS): decreased

O=P(O)(O)C(O)(Cn1ccnc1)P(=O)(O)O [zoledronic acid, 2-(imidazol-1yl)-1-hydroxyethane-1,1-diphosphonic acid]
time for which cancellous bone loss was fully prevented [1, 6]: 8 weeks
time for which cancellous bone mineral density remained significantly higher than in letrozole-treated rats [1, 6]: 24 weeks
time for which cortical thinning was fully prevented [1, 6]: 4 weeks
week until which cortical thickness stayed significantly above the letrozole control ([1]; letrozole-treated rats, 4 μg/kg iv, P<0.01 vs letrozole): 20 week
duration of full protection of total BMD (NS vs sham) ([1]; letrozole-treated rats, highest dose (20 μg/kg iv)): 24 week
duration of full protection against cancellous bone loss [1, 7]: 24 weeks
time for which cortical thinning was fully protected against [1, 7]: 24 weeks
time for which bone loss (total BMD) was delayed (marginally but significantly) ([1]; letrozole-treated rats, single iv 0.8 μg/kg): 4 weeks
time for which cancellous bone loss was delayed (marginally but significantly) ([1]; letrozole-treated rats, single iv 0.8 μg/kg, P<0.05 vs letrozole): 8 weeks
protective effect on mean cortical thickness ([1]; letrozole-treated rats, single iv 0.8 μg/kg, at 2 weeks, P<0.05 vs letrozole): marginal but significant protective effect
time for which bone loss (total BMD) was delayed significantly ([1]; letrozole-treated rats, single iv 4 μg/kg, P<0.01 vs letrozole): 24 weeks
time for which bone loss (total BMD) was delayed significantly ([1]; letrozole-treated rats, single iv 20 μg/kg, P<0.01 vs letrozole): 24 weeks
duration of full protection against Let-induced bone loss ([1]; rats, dose of 20 μg/kg): at least 24 weeks
protection against cancellous bone loss, cortical thinning and reduction of bone strength induced by daily oral Let ([1]; rats, summary in discussion): dose-dependently protects
protection against bone loss in rats treated with letrozole ([1]; summary statement): long term protection against bone loss
ultimate bone strength of 5th lumbar vertebral body [3]: dose-dependently improved
ultimate bone strength of 5th lumbar vertebral body ([2]; letrozole-treated rats, single iv 0.8, 4 or 20 μg/kg, compression): dose-dependently improved
duration of full protection against cancellous bone loss ([4]; highest dose (20 μg/kg iv)): 20 weeks
duration of full protection of total BMD (NS vs sham) ([4]; highest dose (20 μg/kg iv)): 24 week
protection of cortical thickness (NS vs sham at all time points) ([4]; highest dose (20 μg/kg iv), 24-week study): fully protective for the full duration of the study
cancellous bone at 24 weeks ([4]; highest dose (20 μg/kg iv), 24 weeks, NS vs sham): mild cancellous bone loss was visible
time for which cancellous bone loss was delayed (marginally but significantly) ([4]; single iv 0.8 μg/kg): 12 weeks
protective effect on mean cortical thickness ([4]; single iv 0.8 μg/kg, at 2 weeks, P<0.05 vs OVX): marginal protective effect
time for which cancellous bone mineral density was significantly better than in OVX controls ([4]; single iv 4 μg/kg): 24 weeks
time for which cortical thickness was significantly better than in OVX controls ([4]; single iv 4 μg/kg): 12 weeks
time for which cancellous bone mineral density was significantly better than in OVX controls ([4]; single iv 20 μg/kg): 24 weeks
time for which cortical thickness was significantly better than in OVX controls ([4]; single iv 20 μg/kg): 24 weeks
time for which bone loss (total BMD) was delayed significantly ([4]; single iv injection 0.8 μg/kg 3 days before OVX): 8 weeks
time for which bone loss (total BMD) was delayed significantly ([4]; single iv injection 4 μg/kg): 20 weeks
time for which bone loss (total BMD) was delayed significantly ([4]; single iv injection 20 μg/kg): 24 weeks

Reference: patent US20060069067A1, “Combination of an aromatase inhibitor with a bisphosphonate” (priority 2002, published 2006)
